{"source": "patent US12331121B2", "about": "“Efflux pump-cancer antigen multi-specific antibodies and compositions, reagents, kits and methods related thereto” (William Robert Arathoon Living Trust Dated August 29, 2016, priority 2019, dated 2025)", "key": {"MES-SA/Dx5 cells": {"tested_on": "MES-SA/Dx5 cells", "experiment": "MES-SA/Dx5 subcutaneous tumors in nude mice", "assay_type": "in vivo", "protocol": "Cells: MES-SA/Dx5 cell line (Sigma, catalogue no 95051031) is a uterine sarcoma, derived from parent MES-SA cell line (Sigma, catalogue no 95051030), was used in this study.\nMice: 5-6-week-old female nude mice (Charles River) were used in this study.\nAll animal maintenance, handling, surveillance, and animal procedures were performed in accordance with and approval from the APLAC protocol.\nMES-SA/Dx5 subcutaneous tumors: Once tumors reached 100-150 mm^3, mice were randomized into six groups of five mice each—(i) Control isotype IgG1 3 mg/kg, (ii) Control isotype IgG1 3 mg/kg and 20 mg/kg of paclitaxel, (iii) KNJYBisP1.1 3 mg/kg, (iv) KNJYBisP1.1 3 mg/kg and 20 mg/kg of paclitaxel, (v) KNJYBisP1.1 LALAPG 3 mg/kg and (vi) KNJYBisP1.1 LALAPG 3 mg/kg and 20 mg/kg of paclitaxel. Antibody and paclitaxel were dosed intraperitoneally twice a week for two consecutive weeks. […]"}, "HeyT30 cells": {"tested_on": "HeyT30 cells", "experiment": "HeyT30 tumors in mice", "assay_type": "in vivo", "settings": "FIG. 19", "description": "The BisP1.1 bispecific antibody was efficacious against two additional multidrug resistant (MDR) cancer cell lines in xenograft studies. The A2780ADR MDR cancer cell line expresses both CD47 and ABCB1. The HeyT30 MDR cancer cell line also expresses both CD47 and ABCB1 but at a lower level compared to A2780ADR cells (FIGS. 16 and 17). Both the A2780ADR and the HeyT30 cell lines are of ovarian origin. PE-conjugated, commercially available anti-MDR1 and anti-CD47 reagent antibodies were used; for MDR1, Biolegend Cat. No. 348606 and, CD47, Biolegend Cat. No. 323108.\nA2780ADR MDR cancer cell line and HeyT30 MDR cancer cell line were injected into mice according to protocols described in Example 3. Mice were treated with BisP1.1 bispecific antibody with or without paclitaxel."}, "[1]": {"tested_on": "CTG-2616 patient-derived breast tumors", "experiment": "CTG-2616 patient-derived breast cancer model", "assay_type": "in vivo, mice", "settings": "antibody 6 mg/kg and paclitaxel 5 mg/kg", "description": "Cells: CTG-2616 is a ER^+/Her2^+ primary breast cancer, derived from a patient presenting with recurrent ductal adenocarcinoma of the breast.\nMice: 5-6-weeks-old athymic Nude-Foxn1nu female nude mice (Envigo) were used in this study.\nInoculation—Snap-Frozen pieces of patient-derived tumors were thawed, cut into 5×5×5 mm and were subcutaneously injected into anesthetized 5-6-week-old female nude mice under sterile conditions. For tumor implantation procedure, a 1-1.5 cm incision was made on the implantation site and forceps were used to implant the tumor fragment. When sufficient stock animals reached 1000-1500 mm^3, tumors were harvested for re-implantation into pre-study animals. Pre-study animals were implanted unilaterally on the left flank with tumor fragments harvested from stock animals. Each animal was implanted from a specific passage lot and documented. Pre-study tumor volumes were recorded for each experiment beginning seven to ten days after implantation. When tumors reached an average tumor volume of 150-300 mm^3, animals were matched by tumor volume into treatment or control groups to be used for dosing and dosing initiated on Day 0. All surgical procedures were conducted under sterile conditions. […]"}, "NALM6 ADR cells": {"tested_on": "NALM6 ADR cells", "description": "Cells: NALM6 (ATCC) and NALM6 ADR (ATCC), B cell precursor lymphoblastic leukemia cell lines used in this study. NALM6 ADR is a multidrug resistant cell line derived from NALM6 cells.\nMice: Sixty-five 5-6-weeks-old female SCID-Beige mice (Charles River) were used in this study.\nInoculation-2×10^6 cells diluted in PBS:Matrigel (1:1) were subcutaneously injected using a 27G insulin syringe into fifty anesthetized 5-6-week-old female SCID-Beige mice under sterile conditions.\nNALM6 ADR subcutaneous tumors: Mice were randomized into nine groups of five mice each—(i) Control isotype IgG1 15 mg/kg, (ii) Control isotype IgG1 15 mg/kg and 5 mg/kg of paclitaxel, (iii) Control isotype IgG1 15 mg/kg and 20 mg/kg of paclitaxel, (iv) BisP1.1 15 mg/kg, (v) BisP1.1 15 mg/kg and 5 mg/kg of paclitaxel, (vi) BisP1.1 15 mg/kg and 20 mg/kg of paclitaxel (vii) Valspodar 20 mg/kg (viii) Valspodar 20 mg/kg and 5 mg/kg of paclitaxel and (ix) Valspodar 20 mg/kg and […]. Antibody, Valspodar and paclitaxel were dosed intraperitoneally twice a week for four consecutive weeks. Antibody/valspodar were injected at least 4 hours prior to paclitaxel injection. Paclitaxel preparation: Since paclitaxel is poorly soluble, a master stock of 50 mg/ml was prepared in absolute ethanol:Kolliphor (1:1). Prior to injection the stock was diluted to recommended doses of 5 mg/kg or 20 mg/kg with PBS maintaining a ratio of (1:16).\nMeasurements: Tumor measurements were done thrice a week using a calibrated Vernier Caliper and tumor volume calculated as per the formula ½*L*S*S where L is the long axis and s is the short axis of the tumor. Body weights were recorded before treatment started and were continuously monitored throughout the study. Animal survival was evaluated from the first day of treatment until death. To avoid suffering, mice were euthanized when turning moribund according to the above-mentioned predefined criteria: rapid weight loss, loss of ability to ambulate, labored respiration, or inability to drink or feed.\nStatistics: Tumor volume and body weights were compared between different experimental groups using exact one-way analysis of variance (ANOVA). Kaplan-Meier survival curves were compared between different treatment groups using the log-rank (Mantel-Cox) test. Statistical analyses were performed using Graph Pad Prism (GraphPad, San Diego, CA, USA) software. The level of significance was set at p<0.05 for all analyses."}}}
{"substance": "KBisP1.1: bispecific anti-MDR1/anti-CD47 antibody: 15D3 heavy chain, 5F9 (KT14) heavy chain, common MRK16 light chain, human IgG1", "values": [{"measurement": "chemosensitizing effect compared with monospecific antibodies", "setting": "MES-SA/Dx5 cells; 3 mg/kg with paclitaxel 20 mg/kg, FIG. 29", "value": "stronger than either the 15D3 hybridoma or KT14 monoclonal antibodies"}, {"measurement": "chemosensitization of MES-SA/Dx5 tumors to paclitaxel", "setting": "MES-SA/Dx5 cells; antibody 3 mg/kg, paclitaxel 20 mg/kg", "value": "chemosensitizes"}, {"measurement": "tumor volume", "setting": "HeyT30 cells; higher concentration of the antibody", "value": "efficacious with and without paclitaxel"}, {"measurement": "tumor volume", "setting": "HeyT30 cells; lower concentration of the antibody", "value": "efficacious in reducing HeyT30 MDR cancer cell tumor volume with paclitaxel"}, {"measurement": "tumor growth with paclitaxel", "setting": "[1]", "value": "tumor growth inhibition"}, {"measurement": "tumor growth, agent alone", "setting": "NALM6 ADR cells; 15 mg/kg i.p. twice a week", "value": "strong inhibition of tumor growth"}, {"measurement": "tumor growth in combination with paclitaxel", "setting": "NALM6 ADR cells; BisP1.1 15 mg/kg or valspodar 20 mg/kg with paclitaxel 5 or 20 mg/kg", "value": "significantly reduced tumor growth"}, {"measurement": "survival", "setting": "NALM6 ADR cells; valspodar with paclitaxel 20 mg/kg, BisP1.1 alone or plus paclitaxel, compared to control", "value": "prolonged survival"}]}
